Legend:
[1] = test system: meningococcal meningitis; conditions: person
Description: The case patient is person. The patient presenting with pyrexia and disturbance of consciousness was admitted to hospital urgently. […] The patient initiated inhalation, which was performed for one to three hours per day for one month using a hydrogen gas generator “Jobs-α” (a hydrogen concentration, 4% to 6%; generation rate of hydrogen gas, 200 mL/min) manufactured by MiZ Company Limited.

[2] = room temperature, normal pressure; also printed as 1.6 mg/L; cited from earlier work

[HH] [hydrogen, molecular hydrogen]
clinical course ([1]; relapse after ceftriaxone, inhalation one to three hours per day for one month, hydrogen concentration 4% to 6%, 200 mL/min (Jobs-α)): began to improve
brain MRI (ventriculitis) ([1]; after hydrogen inhalation one to three hours per day for one month, hydrogen concentration 4% to 6%): improvement of ventriculitis
concentration dissolved in water (solubility) [2]: approximately 1.6 ppm

CO/N=C(\C(=O)N[C@@H]1C(=O)N2C(C(=O)O)=C(CSc3nc(=O)c(=O)[nH]n3C)CS[C@H]12)c1csc(N)n1 [Ceftriaxone, reference compound]
symptoms (pyrexia, disturbance of consciousness) ([1]; administered for 17 days): resolved symptoms
course after completion of the administration ([1]; after 17 days of administration): relapse

From US20210299162A1, “MOLECULAR HYDROGEN-CONTAINING COMPOSITION FOR PREVENTION AND/OR IMPROVEMENT OF ENCEPHALITIS AND/OR MENINGITIS AND SYMPTOM ASSOCIATED WITH THE ENCEPHALITIS AND/OR MENINGITIS” (MiZ Company Limited, priority 2020, published 2021)
